Data: ChEMBL document CHEMBL1201862, “PubChem BioAssay data set” (2004)
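Step 1: Grow cells in 96-well plates. Step 2: Expose to compound for 48 hours at 5 concentrations. Step 3: Interpolate endpoints linearly; if unreached, use highest concentration. GI50 is the concentration that inhibits growth by half.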 Calls of active or inactive are those of the source. Rule as the data show it: active = GI50 up to about 1.1 µM and inactive = higher.

What was measured:
Test in all cases: growth of human tumour cells (NCI), 48 h
NCI-H460 = tested on: NCI-H460
MDA-MB-231 = tested on: MDA-MB-231
HOP-62 = tested on: HOP-62
SR = tested on: SR
SN12C = tested on: SN12C
DU-145 = tested on: DU-145
786-0 = tested on: 786-0
RPMI-8226 = tested on: RPMI-8226
PC-3 = tested on: PC-3
Hs-578T = tested on: Hs-578T
HCT-116 = tested on: HCT-116
KM12 = tested on: KM12
NCI-H226 = tested on: NCI-H226
MDA-MB-435 = tested on: MDA-MB-435
SF-539 = tested on: SF-539
SK-MEL-5 = tested on: SK-MEL-5
SK-MEL-2 = tested on: SK-MEL-2
CCRF-CEM = tested on: CCRF-CEM
OVCAR-3 = tested on: OVCAR-3
HCC 2998 = tested on: HCC 2998

Cc1c2cnccc2c(C)c2c1c1ccccc1n2CCOC(=O)c1ccccc1
GI50 (NCI-H460): 3.45 µM (inactive)
GI50 (MDA-MB-231): 38.9 µM (inactive)
GI50 (HOP-62): 13.2 µM (inactive)
GI50 (SR): 17.5 µM (inactive)
GI50 (SN12C): 2.52 µM (inactive)
GI50 (DU-145): 25.6 µM (inactive)
GI50 (786-0): 11.5 µM (inactive)
GI50 (RPMI-8226): 8.57 µM (inactive)
GI50 (PC-3): 28.6 µM (inactive)
GI50 (Hs-578T): 30.1 µM (inactive)
GI50 (HCT-116): 5.41 µM (inactive)
GI50 (KM12): 12.5 µM (inactive)
GI50 (NCI-H226): 12.6 µM (inactive)
GI50 (MDA-MB-435): 14.4 µM (inactive)
GI50 (SF-539): 6.21 µM (inactive)
GI50 (SK-MEL-5): 16.2 µM (inactive)
GI50 (SK-MEL-2): 12.5 µM (inactive)
GI50 (CCRF-CEM): 7.52 µM (inactive)
GI50 (OVCAR-3): 12.2 µM (inactive)
GI50 (HCC 2998): 10.7 µM (inactive)

Cn1cnc([N+](=O)[O-])c1Sc1nnc(-c2cccnc2)n1C
GI50 (NCI-H460): > 85.1 µM (inactive)
GI50 (MDA-MB-231): 19.2 µM (inactive)
GI50 (HOP-62): > 91.6 µM (inactive)
GI50 (SR): 15.3 µM (inactive)
GI50 (SN12C): 25.4 µM (inactive)
GI50 (DU-145): 36.4 µM (inactive)
GI50 (786-0): 18.5 µM (inactive)
GI50 (RPMI-8226): 18.1 µM (inactive)
GI50 (PC-3): 25 µM (inactive)
GI50 (Hs-578T): 34.7 µM (inactive)
GI50 (HCT-116): 18.4 µM (inactive)
GI50 (KM12): > 82 µM (inactive)
GI50 (NCI-H226): > 66.4 µM (inactive)
GI50 (MDA-MB-435): 14.9 µM (inactive)
GI50 (SF-539): 22.2 µM (inactive)
GI50 (SK-MEL-5): 16.9 µM (inactive)
GI50 (SK-MEL-2): 18.5 µM (inactive)
GI50 (CCRF-CEM): 15.5 µM (inactive)
GI50 (OVCAR-3): 17.2 µM (inactive)
GI50 (HCC 2998): 30.9 µM (inactive)

COc1cc(-c2cc(O)c(-c3ccc4ccccc4n3)c(O)n2)cc(OC)c1OC
GI50 (NCI-H460): 31 µM (inactive)
GI50 (MDA-MB-231): 36.6 µM (inactive)
GI50 (HOP-62): 53.3 µM (inactive)
GI50 (SR): 1.77 µM (inactive)
GI50 (SN12C): > 56.6 µM (inactive)
GI50 (DU-145): 44.9 µM (inactive)
GI50 (786-0): 34.4 µM (inactive)
GI50 (RPMI-8226): > 50 µM (inactive)
GI50 (PC-3): 44.3 µM (inactive)
GI50 (Hs-578T): 57.4 µM (inactive)
GI50 (HCT-116): 19 µM (inactive)
GI50 (KM12): 14.8 µM (inactive)
GI50 (NCI-H226): > 48.3 µM (inactive)
GI50 (MDA-MB-435): 2.07 µM (inactive)
GI50 (SF-539): 30.7 µM (inactive)
GI50 (SK-MEL-5): 15.1 µM (inactive)
GI50 (SK-MEL-2): 32.2 µM (inactive)
GI50 (CCRF-CEM): 10.3 µM (inactive)
GI50 (OVCAR-3): 12.4 µM (inactive)
GI50 (HCC 2998): > 60.3 µM (inactive)

O=C1C[C@H](COCc2ccccc2)NC(=O)C[C@H](COCc2ccccc2)NC(=O)C[C@H](COCc2ccccc2)N1
GI50 (NCI-H460): > 100 µM (inactive)
GI50 (MDA-MB-231): 26.7 µM (inactive)
GI50 (HOP-62): 17.9 µM (inactive)
GI50 (SR): 42.4 µM (inactive)
GI50 (SN12C): > 100 µM (inactive)
GI50 (DU-145): > 100 µM (inactive)
GI50 (786-0): 16.9 µM (inactive)
GI50 (RPMI-8226): > 100 µM (inactive)
GI50 (PC-3): > 100 µM (inactive)
GI50 (Hs-578T): 39.9 µM (inactive)
GI50 (HCT-116): 32.4 µM (inactive)
GI50 (KM12): > 100 µM (inactive)
GI50 (NCI-H226): > 100 µM (inactive)
GI50 (MDA-MB-435): > 100 µM (inactive)
GI50 (SF-539): 15.3 µM (inactive)
GI50 (SK-MEL-5): > 100 µM (inactive)
GI50 (SK-MEL-2): 28.2 µM (inactive)
GI50 (CCRF-CEM): > 100 µM (inactive)
GI50 (OVCAR-3): 80.5 µM (inactive)
GI50 (HCC 2998): > 100 µM (inactive)

CCOC(=O)c1cccc(NC(=O)CI)c1
GI50 (NCI-H460): 1.2 µM (inactive)
GI50 (MDA-MB-231): 1.31 µM (inactive)
GI50 (HOP-62): 1.36 µM (inactive)
GI50 (SR): 0.0262 µM (active)
GI50 (SN12C): 0.29 µM (active)
GI50 (DU-145): 1.76 µM (inactive)
GI50 (786-0): 0.169 µM (active)
GI50 (RPMI-8226): 0.721 µM (active)
GI50 (PC-3): 1.14 µM (inactive)
GI50 (Hs-578T): 2.34 µM (inactive)
GI50 (HCT-116): 0.301 µM (active)
GI50 (KM12): 1.67 µM (inactive)
GI50 (NCI-H226): 0.601 µM (active)
GI50 (MDA-MB-435): 0.263 µM (active)
GI50 (SF-539): 0.65 µM (active)
GI50 (SK-MEL-5): 0.507 µM (active)
GI50 (SK-MEL-2): 0.871 µM (active)
GI50 (CCRF-CEM): 0.0239 µM (active)
GI50 (OVCAR-3): 0.391 µM (active)
GI50 (HCC 2998): 2.24 µM (inactive)

Oc1ccc(-c2cc(-c3c(O)cc(O)cc3O)on2)cc1
GI50 (NCI-H460): 40.3 µM (inactive)
GI50 (MDA-MB-231): > 100 µM (inactive)
GI50 (HOP-62): > 100 µM (inactive)
GI50 (SR): 81.3 µM (inactive)
GI50 (SN12C): 80.5 µM (inactive)
GI50 (DU-145): 53.1 µM (inactive)
GI50 (786-0): 93.5 µM (inactive)
GI50 (RPMI-8226): 44.9 µM (inactive)
GI50 (PC-3): 48 µM (inactive)
GI50 (Hs-578T): 38.2 µM (inactive)
GI50 (HCT-116): 42.5 µM (inactive)
GI50 (KM12): 72.6 µM (inactive)
GI50 (NCI-H226): 70.8 µM (inactive)
GI50 (MDA-MB-435): 56.1 µM (inactive)
GI50 (SF-539): 31.9 µM (inactive)
GI50 (SK-MEL-5): 42.3 µM (inactive)
GI50 (SK-MEL-2): > 100 µM (inactive)
GI50 (CCRF-CEM): 23.2 µM (inactive)
GI50 (OVCAR-3): > 100 µM (inactive)
GI50 (HCC 2998): 66.4 µM (inactive)
